Patent publication US20030225002A1, “Co-therapy for the treatment of migraine comprising anticonvulsant derivatives and anti-migraine agents” (priority 2002, published 2003)

Tests used:
subjects with migraine = assay: Clinical Study Trials #1 and #2: severity of phonophobia associated with migraine headaches; type: in vivo, human; settings: for Severity of Phonophobia Associated With Migraine Headaches, Baseline / Severity of Phonophobia Associated With Migraine Headaches, Double-Blind / Severity of Phonophobia Associated With Migraine Headaches, Difference: scale 0 to 3; for Severity of Phonophobia Associated With Migraine Headaches, Baseline / Severity of Phonophobia Associated With Migraine Headaches, Double-Blind: triptan rescue therapy; for Severity of Phonophobia Associated With Migraine Headaches, Double-Blind: Double-Blind Phase; for Severity of Phonophobia Associated With Migraine Headaches, Difference: Double-Blind minus Baseline
Procedure: The primary objective of these studies was to evaluate the safety and efficacy of three doses of topiramate (50, 100, and 200 mg/day) versus placebo in the prophylaxis of migraine based on the change in the monthly (28 day) migraine period rate from the Prospective Baselin,e Period to the Double-Blind Phase. The secondary objectives for the studies were to assess dose response relationship, and to evaluate the effect of prophylactic treatment with topiramate (50, 100, and 200 mg/day) versus placebo on Health-Related Quality of Life (HRQL).
The studies were randomized, double-blind, placebo-controlled, parallel-group, multicenter studies. Male and female subjects were randomized equally to the four treatment groups.
While the IHS criteria was used to establish the diagnosis at study entry, the evaluation of efficacy was based on migraine periods. A migraine period was defined as the length of time between the onset and cessation of painful migraine symptoms. This period could last up to, but no longer than, 24 hours. If the painful symptoms persisted more than 24 hours after their initial onset, this was considered to be a new, distinct migraine period. If symptoms recurred within 24 hours of the initial onset, this was considered part of the same, initial period.
Subjects who completed the Baseline Phase and met the entry criteria were randomized to one of four treatment groups: 50 mg/day topiramate, 100 mg/day topiramate, 200 mg/day topiramate or placebo. The Double-Blind Phase had two periods: Titration and Maintenance, which are described in more detail below.
The Titration Period immediately followed the Baseline Phase and extended for eight weeks (56 days). During this period, subjects randomized to topiramate were started at a dose of 25 mg/day and the daily dose was increased by 25 mg weekly until they reach their assigned dose (or maximum tolerated dose, whichever is less). From the third week of Titration until the end of the Maintenance Period, a maximum of two dose level reductions were permitted for unacceptable tolerability problems. If the subject was still in the Titration Period after a dose reduction, rechallenge may have occurred in an attempt to achieve the subject's assigned dose, and, if unsuccessful, the dose may have been reduced again to the original reduced dose. Subjects who had their study medication dose decreased twice, and were still experiencing unacceptable tolerability problems that warranted additional dose reductions, exited the study. Clinic visits occurred on Day 29 (Visit 3) and Day 57 (Visit 4/End of Titration).
During this 18-week period, the subjects remained on the dose of study medication reached at the end of the Titration Period (the assigned dose or the maximum tolerated dose). If the subject experienced unacceptable tolerability problems, the dose was reduced, only one dose reduction was permitted in the maintenance. No rechallenge was permitted during the Maintenance Period, so that subject continued on the reduced dose for the remainder of the period. Subjects who already had their study medication dose decreased by two levels, and were still experiencing unacceptable tolerability problems that warranted additional dose reductions exited the study. Clinic visits occurred on Day 85 (Visit 5), Day 113 (Visit 6), Day 141 (Visit 7) and Day 183 (Visit 8/ Double-Blind Final Visit or Early Withdrawal).
Subjects were randomized to one of four treatment groups: a) placebo, b) 50 mg/day topiramate, c) 100 mg/day topiramate, or d) 200 mg/day topiramate. All subjects received study medication in a b.i.d. dosing regimen except during the first week of Titration, during which they took single evening doses.
In keeping with good pain management practices, subjects enrolled in these studies were permitted to take acute abortive/rescue medication as indicated for the treatment of pain during migraine/headache attacks. […]

seizures = settings: several rodent models of epilepsy; cited from earlier work
[1] = system: refractory migraine (migraine without aura); assay: Case Study 2: refractory migraine without aura; type: in vivo, human; settings: 75 mg/day topiramate, 20 mg/day CORGARD and 20 mg/day CELEXA
Procedure: The patient was a person with a lifelong history of refractory migraine (migraine without aura), averaging 8 migraines per month. […] The patient was started on topiramate at 25 mg/day, with dosage increasing to 75 mg/day. Simultaneously, the beta-blocker, CORGARD dosage was decreased to 20 mg/day, with CELEXA at 20 mg/day also continued.

**Q.** With `CC1(C)O[C@@H]2[C@@H](CO[C@@]3(COS(N)(=O)=O)OC(C)(C)O[C@@H]23)O1` [topiramate, 2,3:4,5-bis-O-(1-methylethylidene)-β-D-fructopyranose sulfamate] as the compound, how does the “Severity of Phonophobia Associated With Migraine Headaches, Baseline” value (“Severity … Baseline” for short) (subjects with migraine; TPM 50 mg) read?
**A.** 1.65

**Q.** And the “Severity of Phonophobia Associated With Migraine Headaches, Double-Blind” value (from here on “Severity … Double-Blind”) (subjects with migraine; TPM 50 mg)?
**A.** 1.59

**Q.** And the “Severity of Phonophobia Associated With Migraine Headaches, Difference” value (from here on “Severity … Difference”) (subjects with migraine; TPM 50 mg)?
**A.** −0.06

**Q.** And the “Severity … Baseline” value (subjects with migraine; TPM 100 mg)?
**A.** 1.72

**Q.** And the “Severity … Double-Blind” value (subjects with migraine; TPM 100 mg)?
**A.** 1.58

**Q.** What about the “Severity … Difference” value (subjects with migraine; TPM 100 mg) of the same compound?
**A.** −0.15

**Q.** What about the “Severity … Baseline” value (subjects with migraine; TPM 200 mg) of the same compound?
**A.** 1.50

**Q.** And the “Severity … Double-Blind” value (subjects with migraine; TPM 200 mg)?
**A.** 1.47

**Q.** And the “Severity … Difference” value (subjects with migraine; TPM 200 mg)?
**A.** −0.03

**Q.** And the “Statistical significance of effect, text under Table 5 (in words)” value (subjects with migraine; patients taking 100 mg topiramate in Study 1)?
**A.** Statistically significant differences in the severity of nausea

**Q.** And the “Effect on severity of associated phonophobia (in words)” value (subjects with migraine; topiramate with triptan rescue medication vs triptan rescue alone, measurable at 50 mg and 100 mg)?
**A.** decreased the severity of associated phonophobia

**Q.** And the Block of seizures (seizures)?
**A.** effectively block seizures

**Q.** What about the Headache frequency [1] of the same compound?
**A.** significant decrease in headache frequency

**Q.** And the Headache-free time [1]?
**A.** no headache for up to four weeks
